The data set concerns HepG2, HMEC-1, A549, Caco-2, 3T3. The data set is described as follows: Multiparameter automated HCS cytotoxicity test "Cell health assay". The note with it: for cumulative cytotoxicity index: points over 5 cell lines; for cumulative cytotoxicity index, Total: sum over the five concentrations. The class given is cell-based. On the set-up: scale not given here. The method, then:
Thanks to the use of three fluorescent dyes (MitoTracker - Invitrogen, YO-[…], Hoechst 33 342 - Sigma), assessment of the impact of the studied extracts on the size, and morphology of the nucleus, cytoplasmic membrane integrity, and mitochondrial activity was made. Tests were performed on 96-well plates using 5 cell lines (HepG2, HMEC-1, A549, Caco-2, 3T3). The measurements were taken using automatic pipetting station JANUS by Perkin Elmer. The formulation was examined at five concentrations, measurements were taken in duplicates in 5 independent series. Based on the raw experimental data, statistical analysis of significance of observed differences in average values for three selected measurement parameters, measuring the fluorescence intensity, and dyed surface in cells, using fluorescent dyes, was made. The selected parameters illustrate: • 1. Surface of the cell nucleus (Hoechst (Sigma) • 2. Accumulation of YO-[…] dye (Invitrogen), indicating cytoplasmic membrane damage • 3. Mitochondrial potential (MitoTracker - Invitrogen) Then, the statistically significant differences for each tested concentration of each substance, which indicate morphological, and functional changes in cells, showing cytotoxic activity, were assigned with point values as shown in the diagram of assessment of the observed effects below. Differences subject to the scoring: • 1. Decrease, or increase in nucleus surface • 2. Increase in the accumulation of YO-[…] • 3. Decrease in the mitochondrial potential The following Table 13 illustrates the assigned point values given to the studied formulations in "Cell health assay" test. Table 13. Point values adopted in "Cell health assay" test. [table]

In the case of `C[C@@H]1O[C@@H](O[C@H]2[C@H](Oc3cc(O)c4c(c3)O[C@H](c3ccc(O)cc3)CC4=O)O[C@H](CO)[C@@H](O)[C@@H]2O)[C@H](O)[C@H](O)[C@H]1O` [Naringin], the “cumulative cytotoxicity index, Total” value came out at 1.8. The same compound came in with a cumulative cytotoxicity index (5 µg/ml) of 0.0. Besides, for the setting “10 µg/ml”, the cumulative cytotoxicity index is 0.0. The compound further showed a cumulative cytotoxicity index (30 µg/ml) of 0.2. The cumulative cytotoxicity index (40 µg/ml) is given as 1.4. The cumulative cytotoxicity index (50 µg/ml) was 0.2.

Turning to `O=c1c(O)c(-c2ccc(O)cc2)oc2cc(O)cc(O)c12` [Kaempferol], the “cumulative cytotoxicity index, Total” value came to 27.0. Further, the cumulative cytotoxicity index (5 µg/ml) stood at 2.6. For the same compound, the cumulative cytotoxicity index (10 µg/ml) was determined as 1.4. For the same compound, the cumulative cytotoxicity index (30 µg/ml) is reported as 8.4. For the same compound, for the setting “40 µg/ml”, the cumulative cytotoxicity index was 8.4. This compound gave a cumulative cytotoxicity index (50 µg/ml) of 6.2.

These data come from EP2741758B1, “POLYPHENOLIC FORMULATION, ITS PREPARATION AND USE” (Uniwersytet Medyczny W Lodzi, priority 2011, dated 2013).
